Test results from paper PMC6837340, “Streptococcal phosphotransferase system imports unsaturated hyaluronan disaccharide derived from host extracellular matrices” (PLoS ONE, 2019).

Tests used:
[1] = target: T1, GAG-PTS (EIIABCD; phosphotransferase system for import of unsaturated hyaluronan disaccharide) (Streptococcus agalactiae, UniProt Q8DXF2+Q8DXF3); assay: PTS assay: pyruvate from phosphoenolpyruvate, lactate dehydrogenase-coupled NADH oxidation at […] nm, toluene-treated cells; type: cell-based; settings: 10 mM sugar, 5 mM phosphoenolpyruvate, 5 mM MgCl2, 10 mM NaF, 0.1 M potassium phosphate pH 7.5, 37°C; EIIB-EIIC-EIID deletion mutant as control
T1 construct: gene SAG1899; native complex in toluene-permeabilized wild-type S. agalactiae cells; endogenous EI and HPr also required; EIIA dimer in crystal, 144 residues; with PTS mannose family transporter subunit IIA (EIIA)
T1 sequence (Q8DXF1 entry or part of it, one chain of several, further chain): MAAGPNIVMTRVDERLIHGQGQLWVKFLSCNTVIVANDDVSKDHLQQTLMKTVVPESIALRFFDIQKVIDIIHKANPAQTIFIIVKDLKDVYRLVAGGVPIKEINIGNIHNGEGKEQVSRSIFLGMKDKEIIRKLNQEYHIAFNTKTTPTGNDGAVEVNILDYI
T1 sequence (Q8DXF2 entry or part of it, one chain of several): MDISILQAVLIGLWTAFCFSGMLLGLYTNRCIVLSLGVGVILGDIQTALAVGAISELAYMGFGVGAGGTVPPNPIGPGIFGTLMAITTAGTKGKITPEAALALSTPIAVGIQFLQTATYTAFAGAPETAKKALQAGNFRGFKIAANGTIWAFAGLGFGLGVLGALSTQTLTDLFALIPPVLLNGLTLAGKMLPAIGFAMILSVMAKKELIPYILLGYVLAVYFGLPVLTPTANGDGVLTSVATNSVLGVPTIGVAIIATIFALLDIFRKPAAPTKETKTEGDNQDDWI
T1 sequence (Q8DXF3 entry or part of it, one chain of several): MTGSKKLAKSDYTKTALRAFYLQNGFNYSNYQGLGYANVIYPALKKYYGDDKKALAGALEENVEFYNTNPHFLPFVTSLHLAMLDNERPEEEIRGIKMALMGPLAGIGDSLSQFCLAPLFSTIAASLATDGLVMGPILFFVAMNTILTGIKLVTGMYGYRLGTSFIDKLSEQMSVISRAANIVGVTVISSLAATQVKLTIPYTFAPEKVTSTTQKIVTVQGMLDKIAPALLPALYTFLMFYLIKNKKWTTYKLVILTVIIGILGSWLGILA

[2] = target: the molecule itself; assay: crystal structure; sitting drop vapor diffusion, 20% PEG 3,350, 0.2 M sodium thiocyanate pH 6.9, 20°C; space group P1, six molecules in the asymmetric unit; biological unit judged a dimer with PISA software

For `CC(=O)N[C@H]1C(O)O[C@H](CO)[C@@H](O)[C@@H]1O[C@@H]1OC(C(=O)O)=C[C@H](O)[C@H]1O` (some centres unmarked) [ΔHA, unsaturated hyaluronan disaccharide], the “PTS assay: pyruvate from phosphoenolpyruvate, lactate dehydrogenase-coupled NADH” value [1] was “S. agalactiae imports unsaturated hyaluronan disaccharide using the GAG-PTS encoded in the GAG genetic cluster”.

B1: Streptococcus agalactiae GAG-PTS EIIA^ΔHA (EIIA for unsaturated hyaluronan disaccharide) (natural protein)
chain: MIKIIIVAHGNFPDGILSSLELIAGHQEYVVGINFIAGMSSNDVRVALQREVIDFKEILVLTDLLGGTPFNVSSALSVEYTDKKIKVLSGLNLSMLMEAVLSRTMFEHVDDLVDKVITSSHEGIVDFSTCLATQTAEATFEGGI
notes: PTS EIIA component of the GAG genetic cluster, gene gbs1890, Streptococcus agalactiae (gbs = strain NEM316); 144 residues (Met1-Ile144); Leu131-Ile144 not seen in the crystal structure; Cloned between NdeI and XhoI of pET21b with a reverse primer without a stop codon, so a C-terminal vector-derived His tag is likely (surmised); No PDB id is printed for the structure solved here; also called …
In the case of B1, the “stoichiometry N” value [2] is reported as 2.
